Organism: Rattus norvegicus
Test: DrugMatrix - Regimen: Daily Repeat
Format: toxicity, organism-based, Sprague-Dawley
Parameters: regimen Daily Repeat, gender Male, age 6-8 weeks
Settings: in vivo, iv, vehicle 100 % SALINE; for ABSOLUTE BASOPHIL / ABSOLUTE EOSINOPHIL / ABSOLUTE LYMPHOCYTE / ABSOLUTE MONOCYTE / ABSOLUTE SEGMENTED NEUTROPHIL / BASOPHIL / EOSINOPHIL / ERYTHROCYTE COUNT / HEMATOCRIT / HEMOGLOBIN / LEUKOCYTE COUNT / LYMPHOCYTE / MEAN CORPUSCULAR HEMOGLOBIN / MEAN CORPUSCULAR HEMOGLOBIN CONCENTRATION / MEAN CORPUSCULAR VOLUME / MONOCYTE / NEUTROPHIL / NUCLEATED RED BLOOD CELLS / PLATELET COUNT: tissue Blood; for ALANINE AMINOTRANSFERASE / ALBUMIN / ALKALINE PHOSPHATASE / ASPARTATE AMINOTRANSFERASE / BLOOD UREA NITROGEN / CARBON DIOXIDE / CHLORIDE / CHOLESTEROL / CREATINE PHOSPHOKINASE / CREATININE / GLUCOSE / LACTATE DEHYDROGENASE / LIPASE / PHOSPHORUS / POTASSIUM / SODIUM / TOTAL BILIRUBIN / TOTAL PROTEIN / URIC ACID: tissue Plasma
[1] = 3 mg/kg, 120 h, dose level Low, time 5 day
[2] = 54 mg/kg, 72 h, dose level High, time 3 day
[3] = 54 mg/kg, 120 h, dose level High, time 5 day

## O=c1[nH]c(=O)n([C@H]2C[C@H](O)[C@@H](CO)O2)cc1F [FLOXURIDINE]
[1]
  ABSOLUTE BASOPHIL: 0 CELLS/uL
  ABSOLUTE EOSINOPHIL: 0 CELLS/uL
  ABSOLUTE LYMPHOCYTE: 11533 CELLS/uL
  ABSOLUTE MONOCYTE: 174 CELLS/uL
  ABSOLUTE SEGMENTED NEUTROPHIL: 693 CELLS/uL
  BASOPHIL: 0%
  EOSINOPHIL: 0%
  ERYTHROCYTE COUNT: 5.61 x10E6/uL
  HEMATOCRIT: 34.57%
  HEMOGLOBIN: 13.83 G/DL
  LEUKOCYTE COUNT: 12.4 x10E3/uL
  LYMPHOCYTE: 93%
  MEAN CORPUSCULAR HEMOGLOBIN: 24.7 pg
  MEAN CORPUSCULAR HEMOGLOBIN CONCENTRATION: 40.03 G/DL
  MEAN CORPUSCULAR VOLUME: 61.73 fL
  MONOCYTE: 1.33%
  NEUTROPHIL: 5.67%
  NUCLEATED RED BLOOD CELLS: 0 /100WBC
  PLATELET COUNT: 883.33 x10E3/uL
  ALANINE AMINOTRANSFERASE: 53.33 u/L
  ALBUMIN: 4.33 G/DL
  ALKALINE PHOSPHATASE: 392.33 u/L
  ASPARTATE AMINOTRANSFERASE: 95.67 u/L
  BLOOD UREA NITROGEN: 18.67 mg/dL
  CARBON DIOXIDE: 26.33 mmol/L
  CHLORIDE: 102 MEQ/L
  CHOLESTEROL: 64.67 mg/dL
  CREATINE PHOSPHOKINASE: 328 u/L
  CREATININE: 0.28 mg/dL
  GLUCOSE: 167.33 mg/dL
  LACTATE DEHYDROGENASE: 433.67 u/L
  LIPASE: 10.33 u/L
  PHOSPHORUS: 11.63 mg/dL
  POTASSIUM: 6.75 MEQ/L
  SODIUM: 142.7 MEQ/L
  TOTAL BILIRUBIN: 0.23 mg/dL
  TOTAL PROTEIN: 5.93 G/DL
  URIC ACID: 1.83 mg/dL
[2]
  ABSOLUTE BASOPHIL: 0 CELLS/uL
  ABSOLUTE EOSINOPHIL: 0 CELLS/uL
  ABSOLUTE LYMPHOCYTE: 10754.33 CELLS/uL
  ABSOLUTE MONOCYTE: 75.67 CELLS/uL
  ABSOLUTE SEGMENTED NEUTROPHIL: 703.33 CELLS/uL
  BASOPHIL: 0%
  EOSINOPHIL: 0%
  ERYTHROCYTE COUNT: 5.48 x10E6/uL
  HEMATOCRIT: 33.43%
  HEMOGLOBIN: 13.3 G/DL
  LEUKOCYTE COUNT: 11.53 x10E3/uL
  LYMPHOCYTE: 93.33%
  MEAN CORPUSCULAR HEMOGLOBIN: 24.33 pg
  MEAN CORPUSCULAR HEMOGLOBIN CONCENTRATION: 39.83 G/DL
  MEAN CORPUSCULAR VOLUME: 61.17 fL
  MONOCYTE: 0.67%
  NEUTROPHIL: 6%
  NUCLEATED RED BLOOD CELLS: 0 /100WBC
  PLATELET COUNT: 1073.67 x10E3/uL
  ALANINE AMINOTRANSFERASE: 48.33 u/L
  ALBUMIN: 4.13 G/DL
  ALKALINE PHOSPHATASE: 268 u/L
  ASPARTATE AMINOTRANSFERASE: 81.67 u/L
  BLOOD UREA NITROGEN: 19 mg/dL
  CARBON DIOXIDE: 28.67 mmol/L
  CHLORIDE: 103.33 MEQ/L
  CHOLESTEROL: 68.33 mg/dL
  CREATINE PHOSPHOKINASE: 307.67 u/L
  CREATININE: 0.18 mg/dL
  GLUCOSE: 150.67 mg/dL
  LACTATE DEHYDROGENASE: 152.33 u/L
  LIPASE: 10.33 u/L
  PHOSPHORUS: 9.83 mg/dL
  POTASSIUM: 5.66 MEQ/L
  SODIUM: 141.27 MEQ/L
  TOTAL BILIRUBIN: 0.2 mg/dL
  TOTAL PROTEIN: 5.67 G/DL
  URIC ACID: 1.2 mg/dL
[3]
  ABSOLUTE BASOPHIL: 0 CELLS/uL
  ABSOLUTE EOSINOPHIL: 0 CELLS/uL
  ABSOLUTE LYMPHOCYTE: 10553 CELLS/uL
  ABSOLUTE MONOCYTE: 101.33 CELLS/uL
  ABSOLUTE SEGMENTED NEUTROPHIL: 445.67 CELLS/uL
  BASOPHIL: 0%
  EOSINOPHIL: 0%
  ERYTHROCYTE COUNT: 4.83 x10E6/uL
  HEMATOCRIT: 31%
  HEMOGLOBIN: 12.7 G/DL
  LEUKOCYTE COUNT: 11.1 x10E3/uL
  LYMPHOCYTE: 95%
  MEAN CORPUSCULAR HEMOGLOBIN: 26.57 pg
  MEAN CORPUSCULAR HEMOGLOBIN CONCENTRATION: 41.07 G/DL
  MEAN CORPUSCULAR VOLUME: 64.57 fL
  MONOCYTE: 1%
  NEUTROPHIL: 4%
  NUCLEATED RED BLOOD CELLS: 0 /100WBC
  PLATELET COUNT: 1207.33 x10E3/uL
  ALANINE AMINOTRANSFERASE: 45 u/L
  ALBUMIN: 4.17 G/DL
  ALKALINE PHOSPHATASE: 347 u/L
  ASPARTATE AMINOTRANSFERASE: 84 u/L
  BLOOD UREA NITROGEN: 17.67 mg/dL
  CARBON DIOXIDE: 26.67 mmol/L
  CHLORIDE: 102.33 MEQ/L
  CHOLESTEROL: 52.67 mg/dL
  CREATINE PHOSPHOKINASE: 429.33 u/L
  CREATININE: 0.12 mg/dL
  GLUCOSE: 154 mg/dL
  LACTATE DEHYDROGENASE: 306 u/L
  LIPASE: 9.33 u/L
  PHOSPHORUS: 9.83 mg/dL
  POTASSIUM: 5.61 MEQ/L
  SODIUM: 142.1 MEQ/L
  TOTAL BILIRUBIN: 0.17 mg/dL
  TOTAL PROTEIN: 5.53 G/DL
  URIC ACID: 1.5 mg/dL
